# Columns and labels:
# [1] = system: Her2 and Akt; assay: Degradation assay (Western blot of client proteins); type: cell-based
# Protocol: Western Blotting: SDS-PAGE was carried out using Criterion™ Cell system using pre-casted 4-20% or 4-15% Criterion™ Tris-HCl gels (BioRad, Hercules, Calif.). For Western blotting gels were run at 200V for 1 hour using the PowerPac basic power supply (BioRad, Hercules, Calif.). Next, gels were transferred to nitrocellulose for blotting at 100V for 1 hour (Fisher Scientific, Waltham, Mass.). Nitrocellulose membranes were blocked with 5% dry non-fat milk in phosphate-buffered saline (PBS) with 0.01% Tween-20 for 1 hour at room temperature. Membranes were incubated with primary antibodies (1:1000 dilution) overnight at 4° C. The next day membranes were washed 3× in PBS-Tween, incubated for 1 hour at room temperature with secondary antibodies, and further washed 3× in PBS-Tween. ECL Plus Western blotting reagent (Pierce Biotechnology, Rockford, Ill.) was used to detect antibodies. GFP, Her2, Akt, Hsp70, Hsc70, Grp78, Grp75, and Hsp90 primary antibodies and all associated secondary antibodies were purchased from Cell Signaling Technology (Danvers, Mass.).
# Degradation Assay: The specified cells were seeded overnight and then treated with the indicated concentration of compound for 24 hours. The cells were then harvested and subjected to analysis by Western blot.
# [2] = HS-72 in vivo MTD; conditions: wild-type mice, IP biweekly for 35 days, up to 30 mg/kg
# Protocol: HS-72 in vivo MTD and blood workup: The 5 cohorts consisted of 3 mice each given HS-72 BiW and administered IP in DMSO at 1, 5, 10, 20 and 30 mpk using female FVBs aged to 10 weeks. Body Mass was measured weekly and the mice were monitored for signs of toxicity as per MP1U standard protocol. For blood analysis, 4 mice were injected IP with HS-72 on day 1 and 4, with blood drawn on day 5. 4 mice receiving no treatment were used as controls.
# [3] = system: NF639; assay: Cell proliferation, NF639; type: cell-based, mouse
# Protocol: Cell Proliferation: Cell proliferation was determined using a Hoechst stain (Sigma, St. Louis, Mo.) to quantify DNA. 5,000 cells of the designated cell line were plated in 96 well plates and treated the next day, designated as time point 0, with the indicated concentration of the specified compound maintained for the duration of the assay. At the indicated time points the media was removed and plated frozen at −80° C. Double distilled H2O was then added and the plates were incubated at 37° C. for 1 hour. After 1 hour the plates were frozen at −80° C. After freezing the plates were thawed and Hoechst stain was diluted 1:1000 in THE buffer (10 mM Tris, 2M NaCl, 1 mM Na2EDTA). The final fluorescence was measured on the Victor X2 plate reader at 355/460 nm, and cell proliferation was determined with the formula: % Cell Proliferation=100×(Sample fluorescence−background fluorescence)/(Control fluorescence−background fluorescence).
# [4] = system: PC12 cell line expressing httQ74-GFP; assay: Aggregation assay, cell culture model of Huntington's disease; type: cell-based, rat; conditions: compared to untreated controls
# Protocol: Aggregation Assay: The PC12 rat neuronal cell line, which expresses Huntingtin exon 1 containing 74 glutamine repeats is fused to GFP and under the control of a doxycycline promoter was used [Wyttenbach et al. (2001). Polyglutamine expansions cause decreased CRE-mediated transcription and early gene expression changes prior to cell death in an inducible cell model of Huntington's disease. Human molecular genetics 10, 1829-1845]. Cells were treated with HS-72 for 18 hours prior to a doxycycline addition for 48 hours. The soluble and pellet fraction were then separated by centrifugation at 14,000 rpm for 15 minutes and both fractions were assayed for httQ-GFP by solubilizing with SDS followed by western blotting with antibodies against GFP.
# [5] = biological target: Hsp70i (Homo sapiens, UniProt P0DMV8); assay: Partial proteolysis of Hsp70i with trypsin; design: Full length Hsp70 (black arrow) and tryptic fragments (blue arrows); His tag (cleaved yes); made in house; conditions: 100 uM compound, silver stain
# Chain of Hsp70i (P0DMV8 whole entry, the tested form may be a part): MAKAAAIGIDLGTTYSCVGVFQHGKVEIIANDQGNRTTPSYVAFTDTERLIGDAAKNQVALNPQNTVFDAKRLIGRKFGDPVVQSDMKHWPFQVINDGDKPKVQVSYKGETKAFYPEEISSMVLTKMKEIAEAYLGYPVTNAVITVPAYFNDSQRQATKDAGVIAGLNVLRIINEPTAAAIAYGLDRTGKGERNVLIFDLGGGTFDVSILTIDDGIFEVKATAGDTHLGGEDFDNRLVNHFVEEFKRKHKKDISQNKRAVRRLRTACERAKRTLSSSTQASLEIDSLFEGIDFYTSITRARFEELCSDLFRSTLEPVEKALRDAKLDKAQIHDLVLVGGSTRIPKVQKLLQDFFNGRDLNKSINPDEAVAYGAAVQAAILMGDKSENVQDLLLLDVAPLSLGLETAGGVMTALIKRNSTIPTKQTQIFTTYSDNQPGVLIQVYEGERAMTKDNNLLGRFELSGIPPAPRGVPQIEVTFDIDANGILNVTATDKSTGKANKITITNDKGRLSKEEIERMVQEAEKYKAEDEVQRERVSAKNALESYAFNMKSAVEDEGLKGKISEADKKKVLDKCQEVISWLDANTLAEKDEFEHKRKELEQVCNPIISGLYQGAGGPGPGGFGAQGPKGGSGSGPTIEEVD
# Protocol: Mass Spectrometry: Tryptic peptides were subjected to matrix-assisted laser desorption-ionization mass spectrometry (MALDI-MS) on an ABSCIEX TOF/TOF 5800 mass spectrometer. Positive mode time of flight was used to identify peptides, and individual peptides were sequenced by MS/MS. All sequence and peptide fingerprint data was searched using the UniProt database.
# Partial Proteolysis: Hsp70i (8 μg for SDS-PAGE analysis, 2 μg for mass spec analysis) was incubated with 1 mM ATP, 1 mM ADP, 100 uM HS72, 100 uM HS72+1 mM ATP, or 100 uM HS72+1 mM ADP for 30 min. at room temperature. Hsp70i was digested by adding 0.1 μg of trypsin (Promega, Madison, Wis.) per 2 μg of protein and was quenched by addition of 25% TFA for mass spec analysis or addition of 5×SDS loading buffer and boiling for SDS-PAGE analysis at 2 hours, or 24 hours. Gels were visualized by silver stain.
# [6] = biological target: T1, Hsp70 (Sus scrofa, UniProt P34930); assay: Endogenous Hsp70 elution from ATP resin, pig bladder lysate; type: binding; conditions: few non-specific eluted proteins
# T1 construct: from tissue; host or cells: pig bladder
# T1 sequence (P34930 whole entry): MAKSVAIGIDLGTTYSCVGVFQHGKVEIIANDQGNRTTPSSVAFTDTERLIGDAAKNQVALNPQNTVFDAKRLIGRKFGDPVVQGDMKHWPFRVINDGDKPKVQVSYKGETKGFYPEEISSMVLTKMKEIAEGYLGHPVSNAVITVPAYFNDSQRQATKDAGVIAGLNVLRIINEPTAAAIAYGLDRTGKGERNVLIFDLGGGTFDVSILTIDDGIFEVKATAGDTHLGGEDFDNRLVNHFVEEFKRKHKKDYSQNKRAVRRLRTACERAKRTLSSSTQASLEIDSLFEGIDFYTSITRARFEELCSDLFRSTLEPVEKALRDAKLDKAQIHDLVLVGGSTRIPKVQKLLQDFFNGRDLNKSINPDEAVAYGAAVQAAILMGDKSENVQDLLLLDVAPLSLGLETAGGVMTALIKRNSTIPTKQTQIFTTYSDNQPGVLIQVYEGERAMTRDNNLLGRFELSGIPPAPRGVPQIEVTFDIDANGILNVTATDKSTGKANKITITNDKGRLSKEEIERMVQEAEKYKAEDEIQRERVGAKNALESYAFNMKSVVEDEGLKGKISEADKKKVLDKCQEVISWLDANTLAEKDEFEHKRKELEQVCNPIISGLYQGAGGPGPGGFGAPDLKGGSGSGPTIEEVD
# Protocol: Endogenous Hsp70 elution: Pig bladder tissue was used for eluting endogenous Hsp70 from the γ-phosphate ATP sepharose resin. Tissue was homogenized in liquid nitrogen and stored at −80° C. until further use. Tissue mass was measured (g) and then 2.5× volume (mL) of tissue lysis buffer (50 mM HEPES, 60 mM MgCl2, 60 mM KCl, 1 mM DTT) was added and homogenized on a laboratory blender. A total of 25 grams of homogenized tissue was typically used for each experiment. Subsequent to lysis, the tissue was centrifuged at 35,000 RPM in a Beckman Type 45 Ti rotor (Brea, Calif.) for 45 minutes at 4° C., and then filtered over silica wool. The filtered supernatant was then added to the γ-phosphate ATP sepharose resin and washed as previously described in the FLECS screen. Compounds were used to elute Hsp70 and the elutions were then separated by SDS-PAGE and analyzed by Western blot or the gels were visualized by silver stain.
# [7] = HS-72 in combination with HS-10
smiles,measurement,setting,value
"CCCn1c(NC(=O)[C@H]2CCCN(c3cnccn3)C2)nc2ccccc21 [HS-72, (S)—N-(1-propyl-1H-benzo[d]imidazol-2-yl)-1-(pyrazin-2-yl)piperidine-3-carboxamide]",Akt degradation,[1]; [7],significant Akt degradation
same,levels of Her2,[1]; [7],completely abolished
same,Akt and Her2 expression,"[1]; compound alone, BT474 breast cancer cells",dose dependent reduction
same,tolerability in dose escalation,[2],"no adverse events, reduction in body weight, or altered behavior"
same,"cell proliferation, combination with HS-10",[3],synergistic inhibition
same,cell proliferation,"[3]; 25 uM and 50 uM at 24, 48, and 72 hours",inhibits proliferation
same,increase of HttQ-GFP in the insoluble associated pellet fraction,[4],50%
same,proteolytic pattern of Hsp70i,[5],profound difference in the proteolytic pattern
same,elution of Hsp70 from ATP resin,[6],elutes Hsp70

# Reference: patent US10000469B2, “Heat shock protein 70 (hsp-70) receptor ligands” (Duke University, priority 2014, dated 2018)
